Source: article PMC8490515, “Neuromedin B receptor stimulation of Cav3.2 T-type Ca^2+ channels in primary sensory neurons mediates peripheral pain hypersensitivity” (Theranostics, 2021)
Ends that are not written are not given here.

Legend:
T-type channels = settings: cited from earlier work; for current density of IT: via PKC, insulin-like growth factor in dorsal root ganglion neurons, angiotensin-II in neonatal cardiomyocytes, ref [28], [60]; for IT inhibition: dopamine in retinal horizontal cells, adrenaline in newt olfactory receptor cells, prevented by PKA inhibitors, ref [56]
Excerpt: In contrast, stimulation of PKC either by insulin-like growth factor in dorsal root ganglion neurons or by angiote ...

[1] = system: T-type channels in small TG neurons; experiment: Whole-cell patch clamp of T-type channel currents (IT) in small TG neurons; type: cell-based, mouse; settings: for inhibition of IT: 0.5 mM
Cav3.2 (α1H) = experiment: Cav3.2 channel currents in HEK293 cells coexpressing NmbR; type: cell-based, human
Protocol: Standard whole-cell recordings were made at room temperature (22-23 °C) as described previously, [25]. Recording electrodes were pulled from borosilicate glass microcapillary tubes (Sutter Instruments) and had resistances from 3 to 5 MΩ when filled with internal solution. Recordings were obtained using a MultiClamp 700B amplifier (Axon Instruments). Data were digitized on a personal computer using a Digidata 1440 interface under the control of the pClamp10.2 acquisition package (Molecular Devices). Data were acquired at 20 kHz with a low-pass Bessel filter at 2-5 kHz. Series resistance was compensated to 80%. The internal solution used for T-type channel current recordings contained 110 mM CsCl, 4 mM Mg-ATP, 0.3 mM Na2-GTP, 25 mM HEPES, and 10 mM EGTA, adjusted to pH 7.4 with CsOH; 295 mOsm. The external solution used for T-type channel current recordings contained 5 mM BaCl2, 140 mM TEA-Cl, 10 mM HEPES, 0.5 mM MgCl2, 5 mM CsCl, and 5.5 mM glucose, adjusted to pH 7.35 with TEA-OH; 305 mOsm. In experiments for Kv current recordings, the extracellular solution contained 140 mM choline-Cl, 1 mM MgCl2, 0.03 mM CaCl2, 5 mM KCl, 10 mM HEPES, and 10 mM glucose, adjusted to pH 7.4 with KOH; 310 mOsm. The intracellular pipette solution contained 140 mM KCl, 1 mM MgCl2, 0.5 mM CaCl2, 3 mM Mg-ATP, 0.3 mM Na2-GTP, 10 mM HEPES, and 5 mM EGTA, adjusted to pH 7.4 with KOH; 295 mOsm.

small TG neurons = experiment: TG neuronal excitability (action potential firing, rheobase, threshold); type: cell-based, mouse
Protocol: All the procedures performed in this study were carried out in accordance with NIH guidelines and were approved by the Institutional Animal Care and Use Committee of Soochow University. TG neurons were dissociated as previously described, [23]. Briefly, TGs were harvested from 8- to 10-week-old ICR mice of either sex, cut into small pieces and treated with 2 mg/mL collagenase D (Roche) for 20 min followed by 1.5 mg/mL trypsin (Sigma) at 37 °C for 15 min. Cells were dissociated via gentle trituration with fire-polished sterilized Pasteur pipettes and centrifuged through a 15% BSA gradient to remove debris and nonneuronal cells. TG neurons were resuspended in neurobasal A (Thermo Fisher) supplemented with B27 (Thermo Fisher) and transferred onto Matrigel-coated coverslips. Patch clamp recordings were conducted 2 to 6 h after plating. In shRNA-treated knockdown experiments, TG cells were replated onto coverslips 48 h after infection.
Standard whole-cell recordings were made at room temperature (22-23 °C) as described previously, [25]. Recording electrodes were pulled from borosilicate glass microcapillary tubes (Sutter Instruments) and had resistances from 3 to 5 MΩ when filled with internal solution. Recordings were obtained using a MultiClamp 700B amplifier (Axon Instruments). Data were digitized on a personal computer using a Digidata 1440 interface under the control of the pClamp10.2 acquisition package (Molecular Devices). Data were acquired at 20 kHz with a low-pass Bessel filter at 2-5 kHz. Series resistance was compensated to 80%. The internal solution used for T-type channel current recordings contained 110 mM CsCl, 4 mM Mg-ATP, 0.3 mM Na2-GTP, 25 mM HEPES, and 10 mM EGTA, adjusted to pH 7.4 with CsOH; 295 mOsm. The external solution used for T-type channel current recordings contained 5 mM BaCl2, 140 mM TEA-Cl, 10 mM HEPES, 0.5 mM MgCl2, 5 mM CsCl, and 5.5 mM glucose, adjusted to pH 7.35 with TEA-OH; 305 mOsm. In experiments for Kv current recordings, the extracellular solution contained 140 mM choline-Cl, 1 mM MgCl2, 0.03 mM CaCl2, 5 mM KCl, 10 mM HEPES, and 10 mM glucose, adjusted to pH 7.4 with KOH; 310 mOsm. The intracellular pipette solution contained 140 mM KCl, 1 mM MgCl2, 0.5 mM CaCl2, 3 mM Mg-ATP, 0.3 mM Na2-GTP, 10 mM HEPES, and 5 mM EGTA, adjusted to pH 7.4 with KOH; 295 mOsm. The two kinetically distinct Kv currents in small TG neurons were separated by the two-step voltage protocol as previously described, [26]. The external solution for Nav current clamp recordings contained 2 mM KCl, 2 mM MgCl2, 25 mM HEPES, 2 mM CaCl2, 128 mM NaCl, and 30 mM glucose, adjusted to pH 7.4 with NaOH; 305 mOsm. The internal solution contained 10 mM NaCl, 110 mM KCl, 4 mM Mg-ATP, 0.3 mM Na2-GTP, 25 mM HEPES, and 2 mM EGTA, adjusted to pH 7.3 with KOH; 295 mOsm. Nmb was applied to a patched cell by an air-pressure microinjector (Pneumatic PicoPump, model PV830, WPI).
We next determined the role of the Nmb-induced T-type channel response in regulating TG neuronal excitability. […] Furthermore, application of Nmb (100 nM) to TG neurons decreased the peak amplitude of the transient outward K^+ channel currents (A-type currents or IA) (decrease of 22.3 ± 3.9%; Figure 6C), while the sustained delayed rectifier K^+ channel currents (IDR) remained unaffected (decrease of 1.9 ± 1.6%; Figure 6C). […] To further test this hypothesis, a shorter (1 ms) current injection was applied to avoid contaminating the action potential waveform with the stimulus. Neurons were manually hyperpolarized to membrane potentials of -75 mV to maximize the number of T-type channels available for activation. With increasingly stronger current injections (+200 pA), the threshold current necessary to evoke an overshooting AP was determined for each neuron in the presence or absence of Nmb.

PKA = PKA activity assay in TG cells (Pep Tag); type: cell-based, mouse; settings: pretreatment 10 µM compound C, 100 nM Nmb 30 min
Protocol: PKA enzymatic activity in cell lysates was measured using the Pep Tag assay for nonradioactive detection of PKA (Promega, Madison, WI, USA) as described in our previous studies. Briefly, TG cells were cultured in 12-well plates and preincubated with BIM23042 (0.5 μM) or compound C (10 μM) followed by exposure to 100 nM Nmb for 30 min. TG cells were washed with ice-cold phosphate-buffered saline and placed on ice. PKA was extracted from the cell lysates with cold PKA extraction buffer (25 mM Tris-HCl, pH 7.4, 0.5 mM EDTA, 0.5 mM EGTA, 10 mM β-mercaptoethanol, 1 μg/mL leupeptin and 1 μg/mL aprotinin). The assay was conducted according to the manufacturer's instructions.

angiotensin-II: angiotensin-II in neonatal cardiomyocytes (DRVYIHPF; Angiotensin-2; UniProt P01019 25-32, looked up)
current density of IT (T-type channels): significantly increases the current density

SKEEKSDKER WQHLADLADFALAMKDT [the scrambled peptide of QEHA]
Nmb-induced increase in IT with SKEE ([1]; intracellular 10 μM SKEE, 100 nM Nmb, n = 7): 33.2 ± 3.5%

C=C[C@@]1(C)CC(=O)[C@]2(O)[C@@]3(C)[C@@H](O)CCC(C)(C)[C@@H]3[C@H](O)[C@H](OC(C)=O)[C@@]2(C)O1 [forskolin]
increase of IT by forskolin ([1]; 10 μM, n = 7): 38.3 ± 2.1%

corticotrophin-releasing factor: T-type channel inhibition induced by corticotrophin-releasing factor (SEEPPISLDLTFHLLREVLEMARAEQLAQQAHSNRKLMEII; ends and bridges not checked; UniProt P06850 154-194, looked up)
T-type channel inhibition (T-type channels; MN9D dopaminergic cells, prevented by PKC inhibitors, ref [59]): T-type channel inhibition

insulin-like growth factor
current density of IT (T-type channels): significantly increases the current density

QEHAQEPERQYMHIGTMVEFAYALVGK [Gβγ antagonist QEHA peptide]
Nmb-induced increase in IT with QEHA ([1]; dialysis 10 μM QEHA, 100 nM Nmb, n = 6): 3.2 ± 2.5%

PKC 19-36: a pseudosubstrate peptide inhibitor of PKC (RFARKGALRQKNVHEVKD; UniProt P17252 19-36, looked up, fragment)
effect on PMA-induced increase in IT ([1]; 10 μM PKC 19-36, 5 μM PMA, n = 5): abrogated the increase in IT
Nmb-induced increase in IT with PKC 19-36 ([1]; dialysis 10 µM PKC 19-36, 100 nM Nmb, n = 7): 31.5 ± 3.5%
Nmb-induced increase of Cav3.2 currents with PKC 19-36 (Cav3.2 (α1H); dialysis 10 μM PKC 19-36, 100 nM Nmb, n = 9): 30.8 ± 2.3%

[Cl][Ni][Cl] [NiCl2]
effect on Nmb-induced decrease in AP threshold (small TG neurons; preincubation 50 µM NiCl2, 100 nM Nmb, n = 9): completely prevented
effect on Nmb-mediated increase in AP firing rate / hyperexcitability (small TG neurons; pretreatment KT-5720 1 µM (n = 12) or NiCl2 50 μM (n = 11), 100 nM Nmb): completely abolish
decrease of the remaining inward current (IT) ([1]; 50 μM, -110 mV Vh to -40 mV, 22-23 °C, n = 5): 79.2%
inhibition of IT at the end of recording after Nmb ([1]; 0.5 mM NiCl2 added at end of recording after 100 nM Nmb): almost abrogated the IT
inhibition of IT ([1]; n = 5): almost completely abolished
inhibition of IT ([1]; n = 5, listed as Ni^2+): completely blocked IT

Nc1nc2c(ncn2[C@@H]2O[C@H](COP(=O)(O)OP(O)(O)=S)[C@@H](O)[C@H]2O)c(=O)[nH]1 [GDP-β-S]
Nmb-induced increase in IT with GDP-β-S ([1]; 1 mM intracellular GDP-β-S, 100 nM Nmb, n = 6): 2.3 ± 2.7%

cholera toxin
Nmb-induced increase in IT after cholera toxin (Gs) [1]: 33.5 ± 2.9%

c1cc(-c2cnn3cc(-c4ccc(OCCN5CCCCC5)cc4)cnc23)ccn1 [compound C]
Nmb-induced increase in IT after compound C ([1]; preincubation 10 µM compound C, 100 nM Nmb, n = 7): 2.6 ± 2.8%
effect on Nmb-induced increase in PKA activity (PKA): abrogated
Nmb-induced increase of Cav3.2 currents after compound C (Cav3.2 (α1H); pretreatment 10 µM compound C, 100 nM Nmb, n = 8): 1.4 ± 2.9%

CCCCCCCCCCCCCC(=O)O[C@@H]1[C@@H](C)[C@@]2(O)[C@@H](C=C(CO)C[C@]3(O)C(=O)C(C)=C[C@@H]23)[C@@H]2C(C)(C)[C@]12OC(C)=O [PMA, phorbol 12-myristate 13-acetate]
effect of PMA on IT ([1]; 5 μM, n = 7): increase in IT

COc1ccc2c(c1)CC[C@@H]1[C@@H]2CC[C@]2(C)[C@@H](NCCCCCCN3C(=O)C=CC3=O)CC[C@@H]12 [U73122]
Nmb-induced increase in IT after U73122 ([1]; pretreatment 3 μM U73122 (legend: 1 μM), 100 nM Nmb, n = 8): 31.8 ± 4.2%

CNC[C@H](O)c1ccc(O)c(O)c1 [adrenaline]
IT inhibition (T-type channels): IT inhibition

NCCc1ccc(O)c(O)c1 [dopamine]
IT inhibition (T-type channels): IT inhibition
